In patent publication US20100048536A1, “Novel Substituted Diaryl Azepine Derivatives as Integrin Ligands” (priority 2000, published 2010):

Biological target: T1, integrin αvβ3 (Homo sapiens, UniProt P05106+P06756)
T1 construct: from tissue; host or cells: human placenta
Test: Integrin αvβ3 assay (competition with vitronectin for binding to solid phase-bound integrin αvβ3)
Settings: integrin αvβ3 from human placenta, qualitative ranking only
Procedure: For the identification and assessment of integrin αvβ3 ligands, a test system was used which was based on competition between the natural integrin αvβ3 ligand vitronectin and the test substance for binding to solid phase-bound integrin αvβ3
• Microtiter plates coated with 250 ng/ml of integrin αvβ3 in 0.05 M NaHCO3 pH 9.2; 0.1 ml/well; • saturation with 1% powdered milk/assay buffer; 0.3 ml/well; 0.5 h/RT • 3× washing with 0.05% Tween 20/assay buffer • test substance in 0.1% powdered milk/assay buffer, 50 μl/well+0 μg/ml or 2 μg/ml of human vitronectin (Boehringer Ingelheim T007) in 0.1% powdered milk/assay buffer, 50 μl/well; 1 h/RT • 3× washing with 0.05% Tween 20/assay buffer • 1 μg/ml of anti human vitronectin antibody coupled to peroxidase (Kordia SAVN-APHRP) in 0.1% powdered milk/assay buffer; 0.1 ml/well; 1 h/RT • 3× washing with 0.05% Tween 20/assay buffer • 0.1 ml/well of peroxidase substrate • stop reaction with 0.1 ml/well of 2 M H2SO4 • measurement of the absorption at 450 nm
Integrin αvβ3: Human placenta is solubilized with Nonidet and integrin αvβ3 affinity-purified on a GRGDSPK matrix (elution with EDTA). Impurities due to integrin αIIbβ3 and human serum albumin, and the detergent and EDTA are removed by anion-exchange chromatography. […]

CN1C(=O)c2ccccc2C(CC(=O)O)c2ccc(OCCCCNc3ccccn3)cc21 (stereo not shown) [Example I, {5-Methyl-6-oxo-3-{4-(2-pyridinylamino)-butoxy]-6,11-dihydro 5H-dibenzo[b,e]azepin-11-yl}acetic acid]
IC50 values (concentration of the ligand at which 50% of the ligand is displaced): best result
